From PMC5392334, “Discovery and characterization of a novel irreversible EGFR mutants selective and potent kinase inhibitor CHMFL-EGFR-26 with a distinct binding mode” (Oncotarget, 2017)

Columns and labels:
CDK4-cyclinD3 = target: T1, CDK4-cyclinD3 (Homo sapiens, UniProt P11802); experiment: KinomeScan; type: binding; details: read-out: % control
T1 construct: purchased DiscoveRx KINOMEscan

NEK7 = target: T2, NEK7 (Homo sapiens, UniProt Q8TDX7); experiment: KinomeScan; type: binding; details: read-out: % control
T2 construct: purchased DiscoveRx KINOMEscan

[1] = target: T3, TYK2(JH1domain-catalytic) (Homo sapiens, UniProt P29597); experiment: KinomeScan; type: binding; details: read-out: % control
T3 construct: TYK2(JH1domain-catalytic); purchased DiscoveRx KINOMEscan

PKN2 = target: T4, PKN2 (Homo sapiens, UniProt Q16513); experiment: KinomeScan; type: binding; details: read-out: % control
T4 construct: purchased DiscoveRx KINOMEscan

AURKA = target: T5, AURKA (Homo sapiens, UniProt O14965); experiment: KinomeScan; type: binding; details: read-out: % control
T5 construct: purchased DiscoveRx KINOMEscan

DAPK3 = target: T6, DAPK3 (Homo sapiens, UniProt O43293); experiment: KinomeScan; type: binding; details: read-out: % control
T6 construct: purchased DiscoveRx KINOMEscan

SRPK2 = target: T7, SRPK2 (Homo sapiens, UniProt P78362); experiment: KinomeScan; type: binding; details: read-out: % control
T7 construct: purchased DiscoveRx KINOMEscan

MKNK1 = target: T8, MKNK1 (Homo sapiens, UniProt Q9BUB5); experiment: KinomeScan; type: binding; details: read-out: % control
T8 construct: purchased DiscoveRx KINOMEscan

CDKL3 = target: T9, CDKL3 (Homo sapiens, UniProt Q8IVW4); experiment: KinomeScan; type: binding; details: read-out: % control
T9 construct: purchased DiscoveRx KINOMEscan

BaF3-TEL-EGFR = experiment: Anti-proliferation, BaF3 isogenic cell lines (CellTiter-Glo); type: cell-based; details: Mus musculus, 72 hours, triplet testing
VRK2 = target: T10, VRK2 (Homo sapiens, UniProt Q86Y07); experiment: KinomeScan; type: binding; details: read-out: % control
T10 construct: purchased DiscoveRx KINOMEscan

PAK2 = target: T11, PAK2 (Homo sapiens, UniProt Q13177); experiment: KinomeScan; type: binding; details: read-out: % control
T11 construct: purchased DiscoveRx KINOMEscan

PLK4 = target: T12, PLK4 (Homo sapiens, UniProt O00444); experiment: KinomeScan; type: binding; details: read-out: % control
T12 construct: purchased DiscoveRx KINOMEscan

CAMK2G = target: T13, CAMK2G (Homo sapiens, UniProt Q13555); experiment: KinomeScan; type: binding; details: read-out: % control
T13 construct: purchased DiscoveRx KINOMEscan

PIK3CA(E542K) = target: T14, PIK3CA(E542K) (Homo sapiens, UniProt P42336, E542K); experiment: KinomeScan; type: binding; details: read-out: % control
T14 construct: purchased DiscoveRx KINOMEscan

TAOK2 = target: T15, TAOK2 (Homo sapiens, UniProt Q9UL54); experiment: KinomeScan; type: binding; details: read-out: % control
T15 construct: purchased DiscoveRx KINOMEscan

EGFR(G719C) = target: T16, EGFR(G719C) (Homo sapiens, UniProt P00533, G719C); experiment: KinomeScan; type: binding; details: read-out: % control
T16 construct: purchased DiscoveRx KINOMEscan

CAMK2D = target: T17, CAMK2D (Homo sapiens, UniProt Q13557); experiment: KinomeScan; type: binding; details: read-out: % control
T17 construct: purchased DiscoveRx KINOMEscan

[2] = target: RPS6KA5(Kin.Dom.2-C-terminal) (Homo sapiens, UniProt O75582); experiment: KinomeScan; type: binding; details: read-out: % control
ERK3 = target: T18, ERK3 (Homo sapiens, UniProt Q16659); experiment: KinomeScan; type: binding; details: read-out: % control
T18 construct: purchased DiscoveRx KINOMEscan

PAK1 = target: T19, PAK1 (Homo sapiens, UniProt Q13153); experiment: KinomeScan; type: binding; details: read-out: % control
T19 construct: purchased DiscoveRx KINOMEscan

IKK-alpha = target: T20, IKK-alpha (Homo sapiens, UniProt O15111); experiment: KinomeScan; type: binding; details: read-out: % control
T20 construct: purchased DiscoveRx KINOMEscan

RIPK4 = target: T21, RIPK4 (Homo sapiens, UniProt P57078); experiment: KinomeScan; type: binding; details: read-out: % control
T21 construct: purchased DiscoveRx KINOMEscan

DYRK1B = target: T22, DYRK1B (Homo sapiens, UniProt Q9Y463); experiment: KinomeScan; type: binding; details: read-out: % control
T22 construct: purchased DiscoveRx KINOMEscan

EPHB2 = target: T23, EPHB2 (Homo sapiens, UniProt P29323); experiment: KinomeScan; type: binding; details: read-out: % control
T23 construct: purchased DiscoveRx KINOMEscan

MTOR = target: T24, MTOR (Homo sapiens, UniProt P42345); experiment: KinomeScan; type: binding; details: read-out: % control
T24 construct: purchased DiscoveRx KINOMEscan

MST1R = target: T25, MST1R (Homo sapiens, UniProt Q04912); experiment: KinomeScan; type: binding; details: read-out: % control
T25 construct: purchased DiscoveRx KINOMEscan

[3] = system: NSCLC cell lines (H1975, HCC827, PC9, H3255; A549, H1355); experiment: Cell cycle analysis; type: cell-based, human
Description: We then examined CHMFL-EGFR-26's effect on cell cycle progression and apoptosis.
The cells were fixed in 70% cold ethanol and incubated at −20 °C overnight then stained with PI/RNase staining buffer (BD Pharmingen). Flow cytometry was performed using a FACS Calibur (BD), and results were analyzed by ModFit software.

TAK1 = target: T26, TAK1 (Homo sapiens, UniProt O43318); experiment: KinomeScan; type: binding; details: read-out: % control
T26 construct: purchased DiscoveRx KINOMEscan

JAK3 = target: T27, JAK3 (Homo sapiens, UniProt P52333); experiment: Invitrogen SelectScreen biochemical assay
T27 construct: purchased Invitrogen (SelectScreen service)
From the text: (§1) In order to better understand CHMFL-EGFR-26's selectivity, we then tested it in DiscoveRx's KinomeScan™ assay. […] Given the fact that KinomeScan™ is a binding assay and sometimes cannot truly reflect the compound inhibitory activity, we then used Invitrogen SelectScreen® assay to test these potential off-targets (Supplementary Table 2). […] This was not surprising because EGFR, JAK3, HER2, HER4 and TEC family kinases (BTK, BLK and BMX) all share a similar cysteine residue at the identical position analogous to Cys 797 in EGFR in the hinge binding area.
(§2) www.impactjournals.com/oncotarget/ Oncotarget, Supplementary Materials 2017
(§3) KinomeScan Profiling by invitrogen SelectScreen® assay
(§4) (1 picture or pasted object on this page, not shown here)

MEK1 = target: T28, MEK1 (Homo sapiens, UniProt Q02750); experiment: Invitrogen SelectScreen biochemical assay
T28 construct: purchased Invitrogen (SelectScreen service)
From the text: as §1, §2, §3, §4

HER4 = target: T29, HER4 (Homo sapiens, UniProt Q15303); experiment: Invitrogen SelectScreen biochemical assay
T29 construct: purchased Invitrogen (SelectScreen service)
From the text: as §1, §2, §3, §4

BMX = target: T30, BMX (Homo sapiens, UniProt P51813); experiment: Invitrogen SelectScreen biochemical assay
T30 construct: purchased Invitrogen (SelectScreen service)
From the text: as §1, §2, §3, §4

BLK = target: T31, BLK (Homo sapiens, UniProt P51451); experiment: Invitrogen SelectScreen biochemical assay
T31 construct: purchased Invitrogen (SelectScreen service)
From the text: as §1, §2, §3, §4

BTK = target: T32, BTK (Homo sapiens, UniProt Q06187); experiment: Invitrogen SelectScreen biochemical assay
T32 construct: purchased Invitrogen (SelectScreen service)
From the text: as §1, §2, §3, §4

HER2 = target: T33, HER2 (Homo sapiens, UniProt P04626); experiment: Invitrogen SelectScreen biochemical assay
T33 construct: purchased Invitrogen (SelectScreen service)
From the text: as §1, §2, §3, §4

T30 sequence (P51813 whole entry): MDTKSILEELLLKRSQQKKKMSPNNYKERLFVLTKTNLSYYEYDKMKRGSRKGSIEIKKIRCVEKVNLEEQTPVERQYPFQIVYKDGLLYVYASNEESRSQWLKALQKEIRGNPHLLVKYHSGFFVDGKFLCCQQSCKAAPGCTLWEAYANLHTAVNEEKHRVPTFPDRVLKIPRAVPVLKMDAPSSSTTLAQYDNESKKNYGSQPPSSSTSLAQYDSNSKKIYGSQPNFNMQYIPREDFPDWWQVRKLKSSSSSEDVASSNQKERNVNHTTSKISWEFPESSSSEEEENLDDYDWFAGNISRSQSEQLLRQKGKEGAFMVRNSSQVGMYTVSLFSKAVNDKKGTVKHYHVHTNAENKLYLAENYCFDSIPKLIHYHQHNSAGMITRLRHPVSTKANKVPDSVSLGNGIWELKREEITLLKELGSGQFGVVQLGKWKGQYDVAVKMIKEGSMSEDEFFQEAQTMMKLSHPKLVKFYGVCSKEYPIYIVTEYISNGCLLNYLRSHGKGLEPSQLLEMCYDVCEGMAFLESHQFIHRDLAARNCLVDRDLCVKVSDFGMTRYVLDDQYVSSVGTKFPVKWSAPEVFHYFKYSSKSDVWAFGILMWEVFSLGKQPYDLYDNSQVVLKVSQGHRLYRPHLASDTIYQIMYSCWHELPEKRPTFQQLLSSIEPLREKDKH
T33 sequence (P04626 23-1255): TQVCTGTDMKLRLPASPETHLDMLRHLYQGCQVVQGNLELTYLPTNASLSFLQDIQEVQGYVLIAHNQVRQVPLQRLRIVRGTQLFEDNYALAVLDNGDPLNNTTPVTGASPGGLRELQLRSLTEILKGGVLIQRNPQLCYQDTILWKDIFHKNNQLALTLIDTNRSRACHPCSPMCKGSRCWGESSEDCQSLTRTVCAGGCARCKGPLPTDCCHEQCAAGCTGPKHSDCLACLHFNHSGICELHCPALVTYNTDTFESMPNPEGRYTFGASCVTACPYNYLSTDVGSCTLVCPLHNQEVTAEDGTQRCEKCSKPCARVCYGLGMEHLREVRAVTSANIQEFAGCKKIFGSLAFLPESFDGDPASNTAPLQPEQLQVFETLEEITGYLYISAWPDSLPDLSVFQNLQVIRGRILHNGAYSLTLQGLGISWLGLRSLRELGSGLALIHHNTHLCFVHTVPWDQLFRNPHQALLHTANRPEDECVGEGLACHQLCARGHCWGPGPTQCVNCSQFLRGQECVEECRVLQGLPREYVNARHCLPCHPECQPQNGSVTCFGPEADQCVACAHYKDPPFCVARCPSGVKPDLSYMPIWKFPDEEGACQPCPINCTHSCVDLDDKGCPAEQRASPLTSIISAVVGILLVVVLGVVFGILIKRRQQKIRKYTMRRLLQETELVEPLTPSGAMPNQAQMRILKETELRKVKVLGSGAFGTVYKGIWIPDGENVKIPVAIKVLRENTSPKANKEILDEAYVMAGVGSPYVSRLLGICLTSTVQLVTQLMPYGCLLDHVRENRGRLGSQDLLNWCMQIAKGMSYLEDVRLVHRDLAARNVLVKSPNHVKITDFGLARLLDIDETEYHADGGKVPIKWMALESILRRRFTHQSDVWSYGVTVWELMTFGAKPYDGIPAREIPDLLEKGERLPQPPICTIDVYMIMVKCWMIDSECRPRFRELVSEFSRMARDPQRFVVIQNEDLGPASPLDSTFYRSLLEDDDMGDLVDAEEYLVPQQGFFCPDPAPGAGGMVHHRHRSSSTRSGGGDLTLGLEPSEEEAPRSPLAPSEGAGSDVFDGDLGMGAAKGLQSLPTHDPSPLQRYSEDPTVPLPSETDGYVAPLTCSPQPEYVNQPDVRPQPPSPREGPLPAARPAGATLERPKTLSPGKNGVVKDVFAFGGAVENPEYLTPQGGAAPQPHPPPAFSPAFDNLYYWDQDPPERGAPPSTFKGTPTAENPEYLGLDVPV
T13 sequence (Q13555 whole entry): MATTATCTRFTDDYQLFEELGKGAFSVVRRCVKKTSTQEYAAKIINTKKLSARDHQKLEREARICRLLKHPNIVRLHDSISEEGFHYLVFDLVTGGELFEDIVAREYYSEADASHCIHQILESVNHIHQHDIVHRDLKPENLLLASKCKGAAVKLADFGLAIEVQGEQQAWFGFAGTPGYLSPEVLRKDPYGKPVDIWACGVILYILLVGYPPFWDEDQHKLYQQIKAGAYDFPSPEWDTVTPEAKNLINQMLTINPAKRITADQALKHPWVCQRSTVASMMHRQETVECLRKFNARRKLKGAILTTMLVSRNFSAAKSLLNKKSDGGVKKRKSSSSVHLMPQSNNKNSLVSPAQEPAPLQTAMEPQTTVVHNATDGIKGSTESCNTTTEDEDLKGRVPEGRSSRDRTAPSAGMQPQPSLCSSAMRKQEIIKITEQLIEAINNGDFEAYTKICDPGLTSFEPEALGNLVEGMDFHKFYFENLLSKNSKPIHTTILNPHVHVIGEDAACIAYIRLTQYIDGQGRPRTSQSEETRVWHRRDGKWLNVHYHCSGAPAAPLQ
T16 sequence (P00533 25-1210 G719C): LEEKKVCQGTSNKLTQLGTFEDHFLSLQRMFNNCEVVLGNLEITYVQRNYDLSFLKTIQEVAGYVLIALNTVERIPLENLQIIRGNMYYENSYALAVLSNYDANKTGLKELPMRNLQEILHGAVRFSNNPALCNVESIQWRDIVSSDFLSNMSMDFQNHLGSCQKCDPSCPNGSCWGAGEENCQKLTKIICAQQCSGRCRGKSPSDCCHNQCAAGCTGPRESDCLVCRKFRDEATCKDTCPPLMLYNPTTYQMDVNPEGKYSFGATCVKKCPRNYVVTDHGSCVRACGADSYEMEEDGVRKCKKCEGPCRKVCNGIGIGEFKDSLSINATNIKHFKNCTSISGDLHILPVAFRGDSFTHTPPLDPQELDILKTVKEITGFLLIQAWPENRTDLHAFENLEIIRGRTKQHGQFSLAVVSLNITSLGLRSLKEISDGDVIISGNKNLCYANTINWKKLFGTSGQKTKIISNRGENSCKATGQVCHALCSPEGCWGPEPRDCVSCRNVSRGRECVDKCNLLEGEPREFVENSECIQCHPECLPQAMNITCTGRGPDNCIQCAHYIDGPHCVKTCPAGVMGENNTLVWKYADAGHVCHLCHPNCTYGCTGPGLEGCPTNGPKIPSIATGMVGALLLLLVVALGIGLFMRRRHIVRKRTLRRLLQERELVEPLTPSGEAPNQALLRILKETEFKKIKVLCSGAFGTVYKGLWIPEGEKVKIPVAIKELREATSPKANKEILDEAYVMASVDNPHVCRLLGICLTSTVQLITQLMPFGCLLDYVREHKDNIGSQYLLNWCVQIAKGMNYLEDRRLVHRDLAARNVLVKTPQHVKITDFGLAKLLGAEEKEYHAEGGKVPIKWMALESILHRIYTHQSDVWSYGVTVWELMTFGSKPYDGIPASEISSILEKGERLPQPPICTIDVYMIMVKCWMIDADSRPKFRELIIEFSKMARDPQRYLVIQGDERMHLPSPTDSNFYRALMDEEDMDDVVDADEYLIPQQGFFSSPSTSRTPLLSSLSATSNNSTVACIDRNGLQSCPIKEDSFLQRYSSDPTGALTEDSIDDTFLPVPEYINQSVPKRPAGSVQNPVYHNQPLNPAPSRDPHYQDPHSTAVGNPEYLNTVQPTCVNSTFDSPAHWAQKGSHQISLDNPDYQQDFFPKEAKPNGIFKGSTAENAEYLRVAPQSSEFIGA
T29 sequence (Q15303 26-1308): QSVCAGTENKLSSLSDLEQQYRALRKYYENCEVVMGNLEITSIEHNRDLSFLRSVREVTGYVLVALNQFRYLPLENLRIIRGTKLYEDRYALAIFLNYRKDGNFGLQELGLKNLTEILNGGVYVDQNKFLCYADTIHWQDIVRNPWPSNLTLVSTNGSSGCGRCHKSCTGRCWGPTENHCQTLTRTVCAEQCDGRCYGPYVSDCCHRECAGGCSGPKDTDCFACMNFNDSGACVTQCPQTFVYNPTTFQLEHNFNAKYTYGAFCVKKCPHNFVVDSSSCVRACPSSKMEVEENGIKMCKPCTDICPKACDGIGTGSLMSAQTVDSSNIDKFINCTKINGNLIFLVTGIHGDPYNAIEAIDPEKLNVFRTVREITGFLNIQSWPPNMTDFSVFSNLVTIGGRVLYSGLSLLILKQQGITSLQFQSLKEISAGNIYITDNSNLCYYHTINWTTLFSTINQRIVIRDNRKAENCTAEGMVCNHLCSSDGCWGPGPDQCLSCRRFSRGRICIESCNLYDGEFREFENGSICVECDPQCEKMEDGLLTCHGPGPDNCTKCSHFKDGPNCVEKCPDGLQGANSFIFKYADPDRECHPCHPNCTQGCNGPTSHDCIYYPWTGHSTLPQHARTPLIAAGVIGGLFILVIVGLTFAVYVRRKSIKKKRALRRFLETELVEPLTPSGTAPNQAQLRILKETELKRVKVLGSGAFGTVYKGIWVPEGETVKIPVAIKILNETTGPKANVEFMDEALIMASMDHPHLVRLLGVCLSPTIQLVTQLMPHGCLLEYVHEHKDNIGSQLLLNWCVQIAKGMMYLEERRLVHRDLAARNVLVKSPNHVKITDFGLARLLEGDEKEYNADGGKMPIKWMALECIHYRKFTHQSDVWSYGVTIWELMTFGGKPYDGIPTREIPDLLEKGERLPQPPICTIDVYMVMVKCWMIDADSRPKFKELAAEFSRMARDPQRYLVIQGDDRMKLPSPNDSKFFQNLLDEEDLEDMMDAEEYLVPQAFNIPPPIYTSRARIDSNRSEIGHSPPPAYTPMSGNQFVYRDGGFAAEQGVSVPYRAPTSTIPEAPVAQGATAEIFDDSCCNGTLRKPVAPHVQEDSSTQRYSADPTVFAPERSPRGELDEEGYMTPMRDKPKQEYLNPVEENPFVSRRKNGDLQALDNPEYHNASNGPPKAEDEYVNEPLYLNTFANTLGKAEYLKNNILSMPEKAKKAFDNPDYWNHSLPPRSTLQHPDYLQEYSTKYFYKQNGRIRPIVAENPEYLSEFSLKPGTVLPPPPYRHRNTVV

## C=CC(=O)N1CCC[C@@H](n2nc(-c3ccc(OCc4cccc(C)n4)c(Cl)c3)c3c(N)ncnc32)C1 [CHMFL-EGFR-26]
CDK4-cyclinD3
  remaining binding at 1 µM: 100%
NEK7
  remaining binding at 1 µM: 90%
[1]
  remaining binding at 1 µM: 100%
PKN2
  remaining binding at 1 µM: 53%
AURKA
  remaining binding at 1 µM: 97%
DAPK3
  remaining binding at 1 µM: 98%
SRPK2
  remaining binding at 1 µM: 100%
MKNK1
  remaining binding at 1 µM: 100%
CDKL3
  remaining binding at 1 µM: 97%
BaF3-TEL-EGFR
  GI50: 5400 nM
VRK2
  remaining binding at 1 µM: 95%
PAK2
  remaining binding at 1 µM: 77%
PLK4
  remaining binding at 1 µM: 99%
CAMK2G
  remaining binding at 1 µM: 95%
PIK3CA(E542K)
  remaining binding at 1 µM: 93%
TAOK2
  remaining binding at 1 µM: 78%
EGFR(G719C)
  remaining binding at 1 µM: 16%
CAMK2D
  remaining binding at 1 µM: 91%
[2]
  remaining binding at 1 µM: 100%
ERK3
  remaining binding at 1 µM: 100%
PAK1
  remaining binding at 1 µM: 59%
IKK-alpha
  remaining binding at 1 µM: 98%
RIPK4
  remaining binding at 1 µM: 96%
DYRK1B
  remaining binding at 1 µM: 85%
EPHB2
  remaining binding at 1 µM: 100%
MTOR
  remaining binding at 1 µM: 100%
MST1R
  remaining binding at 1 µM: 100%
[3]; H1975, HCC827, PC9 and H3255 (EGFR mutants), 24-hour
  cell cycle progression: dramatically blocked cell cycle at G0/G1 phase
[3]; wild-type EGFR lines A549 and H1355, up to 3 μM, 72-hour
  cell cycle progression: did not cause cell cycle arrest
TAK1
  remaining binding at 1 µM: 100%
JAK3
  IC50: 30.6 nM
MEK1
  IC50: 131 nM
HER4
  IC50: 5.39 nM
BMX
  IC50: 38.9 nM
BLK
  IC50: 3.9 nM
BTK
  IC50: 16.3 nM
HER2
  IC50: 15.9 nM
